Experimental data taken from ChEMBL document CHEMBL1201862, “PubChem BioAssay data set” (2004).
One block for each molecule: values may come before it. Activity calls are given as the source filed them.

What was measured:
[1] = biological target: Beta-galactosidase (Escherichia coli, UniProt Q8VNN2); experiment: PubChem AID 485352; assay type: functional
[2] = biological target: Type-1 angiotensin II receptor (Homo sapiens, UniProt P30556); experiment: AT1 receptor antagonists, dose response, selectivity assay for APJ receptor antagonist project, cell-based, uHTS hits (AID 463214); assay type: functional;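 note: antagonist potency against angiotensin II stimulated AT1 response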
Chain of Type-1 angiotensin II receptor (P30556 whole entry): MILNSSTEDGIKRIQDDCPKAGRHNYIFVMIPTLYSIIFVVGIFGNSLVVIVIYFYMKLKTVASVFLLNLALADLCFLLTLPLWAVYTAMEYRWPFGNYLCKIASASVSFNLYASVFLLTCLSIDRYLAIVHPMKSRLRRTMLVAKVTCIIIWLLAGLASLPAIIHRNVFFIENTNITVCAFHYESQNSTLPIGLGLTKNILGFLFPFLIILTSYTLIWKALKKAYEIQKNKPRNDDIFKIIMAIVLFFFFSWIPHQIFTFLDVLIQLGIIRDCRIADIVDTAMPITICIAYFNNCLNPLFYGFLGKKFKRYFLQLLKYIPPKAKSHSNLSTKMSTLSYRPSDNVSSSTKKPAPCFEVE

[3] = biological target: T1, Histone-lysine N-methyltransferase NSD2 (Homo sapiens, UniProt O96028); assay type: biochemical
T1 sequence (O96028 whole entry): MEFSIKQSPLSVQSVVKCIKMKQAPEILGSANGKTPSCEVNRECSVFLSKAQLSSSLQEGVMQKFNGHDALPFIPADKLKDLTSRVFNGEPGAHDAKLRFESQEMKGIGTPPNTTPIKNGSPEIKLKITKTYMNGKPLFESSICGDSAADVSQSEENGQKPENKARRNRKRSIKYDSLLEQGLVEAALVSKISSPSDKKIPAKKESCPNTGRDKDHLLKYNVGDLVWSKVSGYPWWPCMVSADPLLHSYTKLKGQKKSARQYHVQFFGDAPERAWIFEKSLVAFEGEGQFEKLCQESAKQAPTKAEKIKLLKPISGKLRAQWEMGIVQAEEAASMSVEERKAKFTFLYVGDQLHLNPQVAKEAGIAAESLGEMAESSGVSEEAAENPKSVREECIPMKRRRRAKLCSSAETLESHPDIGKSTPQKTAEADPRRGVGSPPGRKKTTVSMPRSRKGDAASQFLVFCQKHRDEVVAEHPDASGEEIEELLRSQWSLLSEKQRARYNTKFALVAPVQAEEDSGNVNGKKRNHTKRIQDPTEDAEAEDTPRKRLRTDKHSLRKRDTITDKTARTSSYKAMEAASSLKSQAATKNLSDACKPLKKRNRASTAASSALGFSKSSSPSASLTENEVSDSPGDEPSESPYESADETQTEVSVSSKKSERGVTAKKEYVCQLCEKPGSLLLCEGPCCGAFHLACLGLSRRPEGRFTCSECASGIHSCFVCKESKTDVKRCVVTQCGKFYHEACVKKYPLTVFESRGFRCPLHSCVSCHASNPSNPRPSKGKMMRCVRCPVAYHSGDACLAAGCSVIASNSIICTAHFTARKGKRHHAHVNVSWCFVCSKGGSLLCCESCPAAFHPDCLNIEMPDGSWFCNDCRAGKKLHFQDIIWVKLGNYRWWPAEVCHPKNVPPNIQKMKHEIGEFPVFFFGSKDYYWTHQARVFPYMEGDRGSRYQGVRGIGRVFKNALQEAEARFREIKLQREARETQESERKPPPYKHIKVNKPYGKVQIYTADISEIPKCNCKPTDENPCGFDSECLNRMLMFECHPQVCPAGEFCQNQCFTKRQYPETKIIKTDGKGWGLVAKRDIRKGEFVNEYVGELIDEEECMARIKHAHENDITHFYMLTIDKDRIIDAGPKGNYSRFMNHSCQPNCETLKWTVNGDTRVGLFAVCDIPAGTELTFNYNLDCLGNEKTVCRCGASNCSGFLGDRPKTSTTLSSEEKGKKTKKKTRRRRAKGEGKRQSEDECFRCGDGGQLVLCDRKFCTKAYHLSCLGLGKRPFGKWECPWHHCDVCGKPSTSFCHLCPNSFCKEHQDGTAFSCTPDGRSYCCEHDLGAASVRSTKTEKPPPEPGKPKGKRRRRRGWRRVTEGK

[4] = biological target: T2, ORF 73 (Human herpesvirus 8, UniProt O40947); experiment: inhibitors of C-LANA binding to LBS DNA, dose response, biochemical, fluorescence polarization, cherry-picked samples (AID 504725); design: species or system Human gammaherpesvirus 8;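 note: fluorescence polarization of a labeled DNA duplex reporting LANA DNA binding; potency is for inhibitors that block LANA binding to the DNA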
T2 sequence (O40947 whole entry): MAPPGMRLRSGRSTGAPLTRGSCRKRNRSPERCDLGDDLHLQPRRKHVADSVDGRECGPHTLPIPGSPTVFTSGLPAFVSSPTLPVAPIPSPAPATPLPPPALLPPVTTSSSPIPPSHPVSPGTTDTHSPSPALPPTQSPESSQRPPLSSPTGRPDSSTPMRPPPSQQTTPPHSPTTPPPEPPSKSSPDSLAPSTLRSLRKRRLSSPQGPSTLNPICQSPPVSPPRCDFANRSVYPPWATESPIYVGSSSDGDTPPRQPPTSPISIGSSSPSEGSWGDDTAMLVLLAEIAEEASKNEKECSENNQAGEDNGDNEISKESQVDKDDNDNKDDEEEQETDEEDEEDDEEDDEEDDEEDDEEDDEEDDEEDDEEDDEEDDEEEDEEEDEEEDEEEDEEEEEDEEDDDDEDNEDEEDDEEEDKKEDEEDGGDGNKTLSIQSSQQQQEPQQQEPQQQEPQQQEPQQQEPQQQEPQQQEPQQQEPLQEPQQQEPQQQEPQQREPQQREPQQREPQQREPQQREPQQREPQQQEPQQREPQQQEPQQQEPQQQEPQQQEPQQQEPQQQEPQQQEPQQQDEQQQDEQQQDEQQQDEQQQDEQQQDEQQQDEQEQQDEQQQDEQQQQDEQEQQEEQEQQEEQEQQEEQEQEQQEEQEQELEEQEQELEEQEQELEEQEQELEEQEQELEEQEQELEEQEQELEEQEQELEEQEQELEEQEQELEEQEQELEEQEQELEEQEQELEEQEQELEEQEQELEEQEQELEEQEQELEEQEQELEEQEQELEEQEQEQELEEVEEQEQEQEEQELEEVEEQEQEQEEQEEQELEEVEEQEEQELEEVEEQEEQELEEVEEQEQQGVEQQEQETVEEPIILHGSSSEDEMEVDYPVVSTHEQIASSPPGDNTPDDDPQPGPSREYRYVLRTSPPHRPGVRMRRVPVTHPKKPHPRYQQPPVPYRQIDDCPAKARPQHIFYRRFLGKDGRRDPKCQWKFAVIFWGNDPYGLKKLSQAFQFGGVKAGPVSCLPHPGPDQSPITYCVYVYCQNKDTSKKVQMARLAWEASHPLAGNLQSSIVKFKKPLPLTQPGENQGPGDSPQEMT

[5] = biological target: T3, RNA-binding protein pos-1 (Caenorhabditis elegans, UniProt G5EF15); experiment: inhibitors of POS-1/mex-3 RNA binding, dose response, biochemical, fluorescence polarization (AID 1964);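 note: purified POS-1 fused to maltose binding protein made in E. coli; potency of compounds blocking POS-1 binding to fluorescent RNA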
T3 sequence (G5EF15 whole entry): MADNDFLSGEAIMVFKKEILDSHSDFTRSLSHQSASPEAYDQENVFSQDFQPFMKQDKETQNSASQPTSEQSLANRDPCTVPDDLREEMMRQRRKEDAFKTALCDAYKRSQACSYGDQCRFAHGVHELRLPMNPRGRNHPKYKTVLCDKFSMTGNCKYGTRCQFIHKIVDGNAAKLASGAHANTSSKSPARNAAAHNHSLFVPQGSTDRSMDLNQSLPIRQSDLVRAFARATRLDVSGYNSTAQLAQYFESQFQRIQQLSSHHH

[6] = system: HeLa; experiment: HeLa cell cytotoxicity, dose response, cytotoxicity control, 24 h, cherry-picked samples (AID 504726); assay type: functional, cell-based; conditions: Homo sapiens;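 note: potency for cytotoxicity as loss of luminescence signal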
[7] = biological target: T4, Zinc finger protein mex-5 (Caenorhabditis elegans, UniProt Q9XUB2); experiment: MEX-5/TCR-2 RNA interaction inhibitors, dose response, biochemical, C. elegans, fluorescence polarization (AID 1960)
T4 sequence (Q9XUB2 whole entry): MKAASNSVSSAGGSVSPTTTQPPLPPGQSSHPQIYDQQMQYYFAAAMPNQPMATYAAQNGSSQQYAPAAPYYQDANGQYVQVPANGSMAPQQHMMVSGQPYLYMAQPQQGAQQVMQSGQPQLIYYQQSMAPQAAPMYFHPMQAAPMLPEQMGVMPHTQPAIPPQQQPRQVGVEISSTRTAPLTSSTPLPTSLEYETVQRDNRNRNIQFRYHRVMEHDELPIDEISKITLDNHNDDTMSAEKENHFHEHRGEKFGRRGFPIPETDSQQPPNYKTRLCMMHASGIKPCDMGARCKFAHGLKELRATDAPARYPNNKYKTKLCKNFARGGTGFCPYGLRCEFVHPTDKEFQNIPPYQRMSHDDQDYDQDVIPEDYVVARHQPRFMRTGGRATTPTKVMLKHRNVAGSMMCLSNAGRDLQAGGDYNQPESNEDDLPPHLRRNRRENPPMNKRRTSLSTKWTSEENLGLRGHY

[8] = biological target: Keap1/Nrf2 (Homo sapiens, UniProt Q14145); experiment: Keap1-Nrf2 protein-protein interaction inhibitors, dose response, biochemical, fluorescence polarization, cherry-picked samples (AID 588683)
Chain of Keap1/Nrf2 (Q16236 whole entry): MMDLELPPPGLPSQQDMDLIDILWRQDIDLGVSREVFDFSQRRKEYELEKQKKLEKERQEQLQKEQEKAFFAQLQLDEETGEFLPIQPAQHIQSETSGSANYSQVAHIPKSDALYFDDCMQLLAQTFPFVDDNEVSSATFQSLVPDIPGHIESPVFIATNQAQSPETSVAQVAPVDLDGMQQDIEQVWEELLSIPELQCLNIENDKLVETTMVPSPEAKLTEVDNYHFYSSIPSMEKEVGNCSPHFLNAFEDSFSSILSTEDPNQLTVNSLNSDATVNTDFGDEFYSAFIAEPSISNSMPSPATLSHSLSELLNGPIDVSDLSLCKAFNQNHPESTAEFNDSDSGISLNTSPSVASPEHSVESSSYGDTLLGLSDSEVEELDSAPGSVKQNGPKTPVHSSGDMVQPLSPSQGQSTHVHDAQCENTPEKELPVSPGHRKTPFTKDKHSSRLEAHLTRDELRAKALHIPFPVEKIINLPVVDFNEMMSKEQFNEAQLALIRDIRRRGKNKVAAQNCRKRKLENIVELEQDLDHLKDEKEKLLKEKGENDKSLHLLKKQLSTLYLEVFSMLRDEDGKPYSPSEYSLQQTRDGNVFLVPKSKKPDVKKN
Chain of Keap1/Nrf2 (Q14145 whole entry): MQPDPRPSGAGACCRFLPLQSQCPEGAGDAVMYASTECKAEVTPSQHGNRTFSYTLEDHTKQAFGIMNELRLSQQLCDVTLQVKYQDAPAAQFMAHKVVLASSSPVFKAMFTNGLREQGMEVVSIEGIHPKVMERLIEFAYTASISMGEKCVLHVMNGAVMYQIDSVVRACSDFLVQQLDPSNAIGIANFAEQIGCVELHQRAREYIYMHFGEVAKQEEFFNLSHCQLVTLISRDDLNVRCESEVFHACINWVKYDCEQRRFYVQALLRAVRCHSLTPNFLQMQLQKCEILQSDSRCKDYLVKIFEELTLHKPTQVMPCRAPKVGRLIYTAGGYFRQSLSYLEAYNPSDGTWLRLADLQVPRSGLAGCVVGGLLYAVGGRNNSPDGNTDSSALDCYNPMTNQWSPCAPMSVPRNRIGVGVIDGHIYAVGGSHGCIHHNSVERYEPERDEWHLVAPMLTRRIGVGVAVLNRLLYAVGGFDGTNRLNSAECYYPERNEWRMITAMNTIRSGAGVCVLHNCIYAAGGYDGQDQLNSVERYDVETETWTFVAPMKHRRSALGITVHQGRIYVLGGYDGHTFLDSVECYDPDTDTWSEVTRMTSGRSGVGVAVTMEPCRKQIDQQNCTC

[9] = biological target: Large T antigen (Simian virus 40, UniProt P03070); assay type: functional, Betapolyomavirus macacae;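 note: Confirmatory-stage PubChem screen for compounds that inhibit SV40 T antigen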
Chain of Large T antigen (P03070 whole entry): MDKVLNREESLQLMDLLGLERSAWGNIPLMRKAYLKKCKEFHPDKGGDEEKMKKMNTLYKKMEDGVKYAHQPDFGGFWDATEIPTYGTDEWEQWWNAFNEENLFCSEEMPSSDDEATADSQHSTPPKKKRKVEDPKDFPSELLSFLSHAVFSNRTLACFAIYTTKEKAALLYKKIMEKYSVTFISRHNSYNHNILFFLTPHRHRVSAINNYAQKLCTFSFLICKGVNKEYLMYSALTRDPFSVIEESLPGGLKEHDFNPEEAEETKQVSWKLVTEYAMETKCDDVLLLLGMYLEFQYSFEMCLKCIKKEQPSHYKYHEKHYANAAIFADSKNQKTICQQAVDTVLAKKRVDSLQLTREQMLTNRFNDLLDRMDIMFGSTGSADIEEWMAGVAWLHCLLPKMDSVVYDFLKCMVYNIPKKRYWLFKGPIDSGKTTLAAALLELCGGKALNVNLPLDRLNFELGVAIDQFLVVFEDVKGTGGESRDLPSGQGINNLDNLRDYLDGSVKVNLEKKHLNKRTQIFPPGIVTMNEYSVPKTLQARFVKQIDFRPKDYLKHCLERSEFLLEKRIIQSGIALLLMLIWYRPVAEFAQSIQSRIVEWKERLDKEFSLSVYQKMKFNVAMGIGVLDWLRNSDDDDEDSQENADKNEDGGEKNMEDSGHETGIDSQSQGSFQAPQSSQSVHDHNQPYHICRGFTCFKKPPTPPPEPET

[10] = system: Salmon testes DNA; experiment: DNA intercalators displacing acridine orange, dose response, artefact control for KSHV LANA DNA-binding inhibitor project, biochemical, fluorescence polarization, cherry-picked samples, set 2 (AID 504727); design: species or system Salmonidae
[11] = system: Candida albicans; experiment: growth inhibition of resistant C. albicans, dose response, CaCi-8 strain, fluconazole, dry powder, set 4 (AID 488950); assay type: functional, organism-based
[12] = system: Candida albicans; experiment: fluconazole resistance reversal in C. albicans, dose response, CaCi-2 strain, Alamar Blue, dry powder, set 4 (AID 488943); assay type: functional, organism-based
[13] = system: Candida albicans; experiment: growth inhibition of azole-resistant C. albicans, dose response, CaCi-8 strain, Alamar Blue, dry powder, set 2 (AID 488909); assay type: functional, organism-based

Chain of Beta-galactosidase (Q8VNN2 whole entry): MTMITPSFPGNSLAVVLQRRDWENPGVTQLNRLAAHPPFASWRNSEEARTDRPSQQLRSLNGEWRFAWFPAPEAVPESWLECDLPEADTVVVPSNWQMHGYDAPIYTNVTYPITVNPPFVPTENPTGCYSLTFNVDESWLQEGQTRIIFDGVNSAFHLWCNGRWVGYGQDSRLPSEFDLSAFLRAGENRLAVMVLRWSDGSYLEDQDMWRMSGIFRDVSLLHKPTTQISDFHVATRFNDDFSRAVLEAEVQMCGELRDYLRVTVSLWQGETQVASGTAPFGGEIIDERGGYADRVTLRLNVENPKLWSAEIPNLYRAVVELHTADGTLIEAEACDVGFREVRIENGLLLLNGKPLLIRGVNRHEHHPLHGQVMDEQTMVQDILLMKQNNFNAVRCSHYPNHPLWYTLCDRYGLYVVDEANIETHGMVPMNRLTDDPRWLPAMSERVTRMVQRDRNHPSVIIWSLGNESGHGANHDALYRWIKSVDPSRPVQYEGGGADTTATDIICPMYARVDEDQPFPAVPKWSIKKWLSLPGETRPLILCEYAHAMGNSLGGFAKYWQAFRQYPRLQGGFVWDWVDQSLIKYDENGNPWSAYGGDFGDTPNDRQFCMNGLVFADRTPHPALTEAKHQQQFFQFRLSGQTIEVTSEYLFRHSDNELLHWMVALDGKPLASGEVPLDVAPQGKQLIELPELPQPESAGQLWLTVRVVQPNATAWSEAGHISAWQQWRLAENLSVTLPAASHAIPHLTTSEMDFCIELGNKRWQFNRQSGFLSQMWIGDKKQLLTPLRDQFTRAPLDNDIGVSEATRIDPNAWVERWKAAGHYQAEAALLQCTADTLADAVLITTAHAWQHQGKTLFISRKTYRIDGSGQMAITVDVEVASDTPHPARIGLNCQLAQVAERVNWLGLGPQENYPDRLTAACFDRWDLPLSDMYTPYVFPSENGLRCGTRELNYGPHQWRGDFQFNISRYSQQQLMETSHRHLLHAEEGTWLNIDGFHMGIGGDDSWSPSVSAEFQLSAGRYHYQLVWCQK

EC50 [1]: > 40 µM (inactive)
IC50 [2]: 39.4 µM (not active)
SMILES: O=C(OCC(=O)c1ccc(Cl)cc1Cl)c1ccc2c(c1)C(=O)N(c1cccc3ncccc13)C2=O

SMILES: O=C(O)CCNc1ccc(NCCC(=O)O)c2c1C(=O)c1ccccc1C2=O
AC50 [3]: 11.2 µM (active)
AC50 [4]: 22.8 µM (active)
EC50 [5]: 12.9 µM (active)
AC50 [6]: 35 µM (active)
EC50 [7]: 15.3 µM (inconclusive)
AC50 [8]: > 52 µM (inactive)
IC50 [9]: 26.7 µM (active)
AC50 [10]: 37.8 µM (active)

SMILES: COc1ccc2c(N3CCN(C(=O)c4ccc(Cl)cc4)CC3)ccnc2c1
AC50 [11]: 8.86 µM (active)
AC50 [12]: 12.4 µM (active)
AC50 [13]: 18.4 µM (active)
